In PubChem BioAssay (NCI):
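Five concentrations, 48 hours, 96-well plates. At the TGI there is no net growth.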

Legend:
Assay in all cases: NCI anticancer screen, dose series, 48 h
[1] = test system: 786-0 renal
[2] = test system: A498 renal
[3] = test system: A549 NSCLC
[4] = test system: ACHN renal
[5] = test system: BT-549 breast
[6] = test system: CAKI-1 renal
[7] = test system: CCRF-CEM leukemia
[8] = test system: COLO 205 colon
[9] = test system: DU-145 prostate
[10] = test system: EKVX NSCLC
[11] = test system: HCC-2998 colon
[12] = test system: HCT-116 colon
[13] = test system: HCT-15 colon
[14] = test system: HL-60(TB) leukemia
[15] = test system: HOP-62 NSCLC
[16] = test system: HOP-92 NSCLC
[17] = test system: HS 578T breast
[18] = test system: HT29 colon
[19] = test system: IGROV1 ovarian
[20] = test system: K-562 leukemia
[21] = test system: LOX IMVI melanoma
[22] = test system: M14 melanoma
[23] = test system: MALME-3M melanoma
[24] = test system: MCF7 breast
[25] = test system: MDA-MB-231 breast
[26] = test system: MDA-MB-435
[27] = test system: MDA-N
[28] = test system: NCI-H226 lung
[29] = test system: NCI-H23 lung
[30] = test system: NCI-H460 lung
[31] = test system: NCI-H522 lung
[32] = test system: NCI/ADR-RES ovarian
[33] = test system: OVCAR-3 ovarian
[34] = test system: OVCAR-4 ovarian
[35] = test system: OVCAR-5 ovarian
[36] = test system: OVCAR-8 ovarian
[37] = test system: PC-3 prostate
[38] = test system: RXF 393 renal
[39] = test system: SF-268 CNS
[40] = test system: SF-295 CNS
[41] = test system: SF-539 CNS
[42] = test system: SK-MEL-2 melanoma
[43] = test system: SK-MEL-28 melanoma
[44] = test system: SK-MEL-5 melanoma
[45] = test system: SK-OV-3 ovarian
[46] = test system: SN12C renal
[47] = test system: SNB-19 CNS
[48] = test system: SNB-75 CNS
[49] = test system: SR leukemia
[50] = test system: SW-620 colon
[51] = test system: TK-10 renal
[52] = test system: U251 CNS
[53] = test system: UACC-257 melanoma
[54] = test system: UACC-62 melanoma
[55] = test system: UO-31 renal
[56] = test system: KM12 colon
[57] = test system: MOLT-4 leukemia

Compound: Cc1ccc(-n2cc(-c3ccc(Cl)cc3)c3c2N=CN2NC(c4cccs4)=NC32)cc1 (stereo not drawn)
- TGI [1]: 15.5 µM
- TGI [2]: 35.9 µM
- TGI [3]: > 100 µM
- TGI [4]: 19.2 µM
- TGI [5]: 53.7 µM
- TGI [6]: 40.4 µM
- TGI [7]: 42.4 µM
- TGI [8]: 28.7 µM
- TGI [9]: > 100 µM
- TGI [10]: 57.1 µM
- TGI [11]: > 100 µM
- TGI [12]: 22 µM
- TGI [13]: > 100 µM
- TGI [14]: 45.1 µM
- TGI [15]: 35.2 µM
- TGI [16]: 24 µM
- TGI [17]: 6.52 µM
- TGI [18]: > 100 µM
- TGI [19]: 34.7 µM
- TGI [20]: > 100 µM
- TGI [21]: > 100 µM
- TGI [22]: > 100 µM
- TGI [23]: > 100 µM
- TGI [24]: > 100 µM
- TGI [25]: 21.5 µM
- TGI [26]: > 100 µM
- TGI [27]: > 100 µM
- TGI [28]: 80.7 µM
- TGI [29]: 52.3 µM
- TGI [30]: 19.2 µM
- TGI [31]: > 100 µM
- TGI [32]: 40.9 µM
- TGI [33]: 35 µM
- TGI [34]: 6.17 µM
- TGI [35]: 51 µM
- TGI [36]: 21 µM
- TGI [37]: > 100 µM
- TGI [38]: 31.4 µM
- TGI [39]: 69.5 µM
- TGI [40]: 25.2 µM
- TGI [41]: 45.2 µM
- TGI [42]: 33 µM
- TGI [43]: > 100 µM
- TGI [44]: > 100 µM
- TGI [45]: 37.3 µM
- TGI [46]: 29 µM
- TGI [47]: 51.1 µM
- TGI [48]: 23.4 µM
- TGI [49]: > 100 µM
- TGI [50]: > 100 µM
- TGI [51]: 27.9 µM
- TGI [52]: 18.1 µM
- TGI [53]: > 100 µM
- TGI [54]: 68.6 µM
- TGI [55]: 27.7 µM

Compound: CC(=O)C1C(=O)C(=O)N(c2ccc(Br)cc2)C1=O (stereo not drawn)
- TGI [1]: > 100 µM
- TGI [3]: > 100 µM
- TGI [4]: > 100 µM
- TGI [5]: > 100 µM
- TGI [6]: > 100 µM
- TGI [7]: > 100 µM
- TGI [8]: > 100 µM
- TGI [9]: > 100 µM
- TGI [10]: > 100 µM
- TGI [11]: > 100 µM
- TGI [12]: > 100 µM
- TGI [13]: > 100 µM
- TGI [14]: > 100 µM
- TGI [15]: > 100 µM
- TGI [16]: > 100 µM
- TGI [17]: > 100 µM
- TGI [18]: > 100 µM
- TGI [19]: > 100 µM
- TGI [56]: > 100 µM
- TGI [21]: > 100 µM
- TGI [22]: > 100 µM
- TGI [24]: > 100 µM
- TGI [25]: > 100 µM
- TGI [26]: > 100 µM
- TGI [27]: > 100 µM
- TGI [57]: > 100 µM
- TGI [28]: > 100 µM
- TGI [29]: > 100 µM
- TGI [30]: > 100 µM
- TGI [31]: > 100 µM
- TGI [32]: > 100 µM
- TGI [33]: > 100 µM
- TGI [34]: > 100 µM
- TGI [35]: > 100 µM
- TGI [36]: > 100 µM
- TGI [37]: > 100 µM
- TGI [38]: > 100 µM
- TGI [39]: > 100 µM
- TGI [40]: > 100 µM
- TGI [41]: > 100 µM
- TGI [42]: > 100 µM
- TGI [43]: > 100 µM
- TGI [44]: > 100 µM
- TGI [45]: > 100 µM
- TGI [46]: > 100 µM
- TGI [47]: > 100 µM
- TGI [48]: > 100 µM
- TGI [50]: > 100 µM
- TGI [51]: > 100 µM
- TGI [52]: > 100 µM
- TGI [53]: > 100 µM
- TGI [54]: > 100 µM
- TGI [55]: > 100 µM
